Measured values as given in patent publication US12180304B2 (Zhejiang University, priority 2020, dated 2024).

Target: T1, intact recombinant antibody against clothianidin and dinotefuran (Mus musculus, UniProt P01837+P01868)
T1 construct: The heavy and light chain variable region genes were ligated to linearized expression vectors pCDNA3.4-Mouse-IgG1 and pCDNA3.4-Mouse-Kappa; mouse IgG1 heavy chain constant region (fusion partner); mouse kappa light chain constant region (fusion partner); made in house; host or cells: HEK293F cells, double-plasmid transfection, Protein A purification
Assay: heterologous indirect competitive ELISA (thiacloprid-OVA coating antigen)
Format: binding
Description: In the early stage of preparation of parental ascitic monoclonal antibodies, a difference in sensitivity was compared between the homologous indirect competitive ELISA (coating antigen was clothianidin-OVA) and the heterologous indirect ELISA (coating antigens were thiacloprid-OVA and imidaclothiz-OVA).
In the present disclosure, the specificity of the antibody was evaluated by detecting the cross-reactivity with eight common neonicotinoid insecticides.

| SMILES | linear range (IC20 to IC80) [ng/mL] |
| --- | --- |
| CN/C(=N\[N+](=O)[O-])NCc1cnc(Cl)s1 [clothianidin] | 1.08 to 15.06 |
| CN/C(=N/CC1CCOC1)N[N+](=O)[O-] (centres unmarked) [dinotefuran] | 3.78 to 30.03 |
